# Results as given in patent US11026940B2, “Compositions for the mobilization, homing, expansion and differentiation of stem cells and methods of using the same” (Ampio Pharmaceuticals, Inc., priority 2013, dated 2021).
# “And” between values parts separate entries of the source, which are not always exact repeats. Equal values may be shown once.
# Assays:
# Format in all cases: cell-based, human
# [1] = test system: Collagen 2A1; assay: Stem cell chondrogenesis, real time PCR gene expression: Collagen 2A1; conditions: for Cp Coll / Mean regulation: Collagen 2A1; for Cp Coll / Mean regulation / Mean ΔCp / ΔCp: Day 22; for Mean regulation: vs saline; for Mean ΔCp / ΔCp: Collagen 2A1 vs GAPDH; for regulation, Collagen 2A1 / Mean regulation, Collagen 2A1: fold regulation vs saline; for regulation, Collagen 2A1 / ΔCp, Collagen 2A1 / 2^-ΔΔCp vs saline, Collagen 2A1 / ΔΔCp vs saline, Collagen 2A1: single replicate well; for Mean regulation, Collagen 2A1 / Mean ΔCp, Collagen 2A1: triplicate wells; for ΔCp, Collagen 2A1: human bone marrow MSC, chondrogenic medium + TGF beta 3; for ΔCp, Collagen 2A1 / 2^-ΔΔCp vs saline, Collagen 2A1 / ΔΔCp vs saline, Collagen 2A1 / Mean ΔCp, Collagen 2A1: vs Actin
# Protocol: (§1) • Stem Cells: Bone marrow derived human mesenchymal stem cells: Passage 5 Bone marrow derived human mesenchymal stem cells (HUXMA-01001, Cyagen Biosciences, Sunnyvale Calif.) • Mesenchymal Stem Cell Chondrogenic Differentiation medium (GUXMX-90041, Cyagen Biosciences, Sunnyvale Calif.) • TheraPEAK MSCGM chemically defined Stem cell medium (190632 Lonza) • 1 mM Dexamethasone acetate and mifepristone in absolute ethanol (Sigma) • Saline or 0.9% Sodium chloride for injection ZR Flush (Excelsior Medical, Neptune N.J.) • Sterile filtered 0.6 mM sodium caprylate in saline (sigma) • Sterile filtered 3 mM NAT in saline (sigma); To prepare, heat at 60° C. for 30 minutes then sonicate for 5 minutes. • Sterile filtered 10 mM DADKP in saline • 0.2 μM syringe filters • Hepes buffered saline, Trypsin/EDTA, Trypsin neutralizing solution (Lonza reagent pack) • 182 cm2 tissue culture flasks • pipettes and sterile tips • Tissue culture hood, humidified CO2 incubator, water or bead bath • 24 well tissue culture plates • Qiagen RNeasy plus spin columns (Qiagen 74134) • Qiagen RT2 qPCR primer pairs for Collagen 2A1, MMP13, TIMP1, Aggrecan, GAPDH, and Actin B • Roche Sybr green I master mix and Invitrogen Superscript VILO master mix. • Roche 480 lightcycler
# (§2) The following stock drug treatment solutions were prepared in saline for injection and warmed to 37° C. in bath: • 4 μM dexamethasone • 4 μM mifepristone • 3 mM NAT • 0.6 mM caprylate • 80 μM DADKP • Mix of 3 mM NAT, 0.6 mM caprylate, 80 μM DADKP (“Ampion” mix)
# (§3) Cyagen Chondrogenic Differentiation medium was prepared by manufacturer protocols but excluding dexamethasone and TGF beta 3 supplements, and warmed to 37° C. in bath.
# (§4) The treatment protocol included expanding 5 HUXMA stem cells in 182 cm^2 flasks containing 40 mls TheraPEAK™ MSCGM to 80-90% confluence. Cells were trypsinized from the flasks and a 1.0×10^7 cell suspension of HUXMA stem cells was warmed in Cyagen Chondrogenic Differentiation medium. 20 μl of warmed cell suspension was spotted in the middle of each well of a 24-well tissue culture plate (200,000 cells per spot), and incubated at 37° C. and 5% CO2 for one hour.
# (§5) The plates were removed from the incubator and an additional 720 μl chondrogenic medium was added to each well. 250 μl saline, or drug solutions were added to the appropriate wells in triplicate (bringing the final drug dilution to one-quarter of the stock drug treatment solution concentrations). 10 μl of TGF beta 3 solution (supplied by Cyagen) was added to each well, and the plates were returned to the incubator.
# (§6) RNA isolation and analysis was conducted for all plates as follows at days 7, 14, and 22 post treatment (with the described medium exchanges). […] Qiagen RNeasy plus lysis buffer (with 2mercaptoethanol) was added to each well and gently shaken for 10 minutes. The lysed cell suspensions from each well were transferred to Qiashredder columns and spun at 14,000 rpm for 2 minutes. RNA isolation proceeded by RNeasy™ plus manufacturer's protocol. RNA was eluted from the Qiagen columns using 25 μl RNase free water.
# (§7) cDNA synthesis and real time PCR was conducted as follows. First strand synthesis of cDNA from all samples was performed in 20 μl total volume using 10 μl isolated RNA. All cDNA reactions were then diluted with 30 μl nuclease free water. Real time PCR was then performed using 5 μl diluted cDNA, Roche Syber green master mix, and Qiagen RT^2 gPCR™ primer pairs in 20 μl total reaction volume. Relative gene expression was determined by delta deta Ct method.
# [2] = test system: MMP13; assay: Stem cell chondrogenesis, real time PCR gene expression: MMP13; conditions: for Cp Coll / Mean regulation: MMP13; for Cp Coll / Mean regulation / Mean ΔCp / ΔCp: Day 22; for Mean regulation: vs saline; for Mean ΔCp / ΔCp: MMP13 vs GAPDH
# Protocol: as §1, §2, §3, §4, §5, §6, §7
# [3] = test system: SOX9; assay: Stem cell chondrogenesis, real time PCR gene expression: SOX9; conditions: Day 14
# Protocol: The treatment protocol included expanding 5 HUXMA stem cells in 182 cm^2 flasks containing 40 […] to 80-90% confluence. Cells were trypsinized from the flasks and a 1.0×10^7 cell suspension of HUXMA stem cells was warmed in Cyagen Chondrogenic Differentiation medium. 20 μl of warmed cell suspension was spotted in the middle of each well of a 24-well tissue culture plate (200,000 cells per spot), and incubated at 37° C. and 5% CO2 for one hour. […] Medium exchanges were performed every 3-4 days by aspirating the medium from the wells and replacing with fresh chondrogenic medium, diluted stocks, and TGF beta 3, as described above. […] Medium from the wells was removed and saved for further protein analysis. Qiagen RNeasy plus lysis buffer (with 2mercaptoethanol) was added to each well and gently shaken for 10 minutes. The lysed cell suspensions from each well were transferred to Qiashredder columns and spun at 14,000 rpm for 2 minutes. RNA isolation proceeded by RNeasyTM plus manufacturer's protocol. RNA was eluted from the Qiagen columns using 25 μl RNase free water. cDNA synthesis and real time PCR was conducted as follows. First strand synthesis of cDNA from all samples was performed in 20 μl total volume using 10 μl isolated RNA. All cDNA reactions were then diluted with 30 μl nuclease free water. Real time PCR was then performed using 5 μl diluted cDNA, Roche Syber green master mix, and Qiagen RT^2 gPCRTM primer pairs in 20 μl total reaction volume.
# [4] = test system: Aggrecan; assay: Stem cell chondrogenesis, real time PCR gene expression: Aggrecan; conditions: Day 22; for Mean ΔCp / ΔCp: Aggrecan vs Actin; for Cp Agg / Mean regulation: Aggrecan; for Mean regulation: vs saline
# Protocol: as §1, §2, §3, §4, §5, §6, §7
# [5] = test system: TIMP1; assay: Stem cell chondrogenesis, real time PCR gene expression: TIMP1; conditions: Day 22; for Mean ΔCp: TIMP1 vs Actin
# Protocol: as §1, §2, §3, §4, §5, §6, §7
# [6] = Day 7, vs Actin, single replicate well
# [7] = vs Actin, single replicate well
smiles,measurement,setting,value
"CCCCCCCC(=O)[O-].[Na+] [Caprylate, sodium caprylate]",Cp Coll,[1]; Table 12,22.93 and 25.6 and 24.26
same,Cp Coll,[1]; Table 16,22.93 and 25.6 and 24.26
same,Mean regulation,[1]; Table 12,101.18
same,Mean regulation,[1]; Table 16,101.18
same,Mean ΔCp,[1]; Table 12,6.557
same,ΔCp,[1]; Table 12,6.08 and 7.19 and 6.4
same,Mean ΔCp,[1]; Table 16,6.557
same,ΔCp,[1]; Table 16,6.08 and 7.19 and 6.4
same,"regulation, Collagen 2A1",[1]; Day 7,1.63 and −1.05 and −1.11
same,"Mean regulation, Collagen 2A1",[1]; Day 7,−0.18
same,"ΔCp, Collagen 2A1",[1]; Day 7,6.03 and 6.81 and 6.88
same,"2^-ΔΔCp vs saline, Collagen 2A1",[1]; Day 7,1.6283 and 0.9482 and 0.9033
same,"ΔΔCp vs saline, Collagen 2A1",[1]; Day 7,−0.7 and 0.077 and 0.147
same,"Mean ΔCp, Collagen 2A1",[1]; Day 7,6.573
same,"regulation, Collagen 2A1",[1]; Day 14,7.19 and 6.95 and 4.28
same,"Mean regulation, Collagen 2A1",[1]; Day 14,6.14
same,"ΔCp, Collagen 2A1",[1]; Day 14,8.21 and 8.26 and 8.96
same,"2^-ΔΔCp vs saline, Collagen 2A1",[1]; Day 14,7.1934 and 6.9483 and 4.2772
same,"ΔΔCp vs saline, Collagen 2A1",[1]; Day 14,−2.85 and −2.8 and −2.1
same,"Mean ΔCp, Collagen 2A1",[1]; Day 14,8.477
same,"regulation, MMP13","[2]; Day 7, fold regulation vs saline, single replicate well",−2.63 and 1.03 and −3.06
same,"Mean regulation, MMP13","[2]; Day 7, fold regulation vs saline, triplicate wells",−1.55
same,"ΔCp, MMP13","[2]; Day 7, human bone marrow MSC, chondrogenic medium + TGF beta 3, vs Actin, single replicate well",6.03 and 4.59 and 6.25
same,"2^-ΔΔCp vs saline, MMP13",[2]; [6],0.3807 and 1.0329 and 0.3268
same,"ΔΔCp vs saline, MMP13",[2]; [6],1.393 and −0.05 and 1.613
same,"Mean ΔCp, MMP13","[2]; Day 7, vs Actin, triplicate wells",5.623
same,Cp Coll,[2]; Table 12,20.28 and 20.31 and 20.73
same,Cp Coll,[2]; Table 16,20.28 and 20.31 and 20.73
same,Mean regulation,[2]; Table 12,0.62
same,Mean regulation,[2]; Table 16,0.62
same,Mean ΔCp,[2]; Table 12,2.733
same,ΔCp,[2]; Table 12,3.43 and 1.9 and 2.87
same,Mean ΔCp,[2]; Table 16,2.733
same,ΔCp,[2]; Table 16,3.43 and 1.9 and 2.87
same,"regulation, SOX9","[3]; fold regulation vs saline, single replicate well",1.16 and 1.99 and 2.28
same,"Mean regulation, SOX9","[3]; fold regulation vs saline, triplicate wells",1.81
same,"ΔCp, SOX9","[3]; human bone marrow MSC, chondrogenic medium + TGF beta 3, vs Actin, single replicate well",6.97 and 6.19 and 5.99
same,"2^-ΔΔCp vs saline, SOX9",[3]; [7],1.1567 and 1.9862 and 2.2815
same,"ΔΔCp vs saline, SOX9",[3]; [7],−0.21 and −0.99 and −1.19
same,"Mean ΔCp, SOX9","[3]; vs Actin, triplicate wells",6.383
same,Mean ΔCp,[4]; Table 12,7.42
same,ΔCp,[4]; Table 12,6.11 and 9.72 and 6.43
same,Mean ΔCp,[4]; Table 16,7.42
same,ΔCp,[4]; Table 16,6.11 and 9.72 and 6.43
same,Cp Agg,[4]; Table 12,21.64 and 25.43 and 21.95
same,Cp Agg,[4]; Table 16,21.64 and 25.43 and 21.95
same,Mean regulation,[4]; Table 12,10.81
same,Mean regulation,[4]; Table 16,10.81
same,Cp TIMP1,"[5]; TIMP1, Table 12",17.65 and 18.77 and 19.77
same,Cp TIMP1,"[5]; TIMP1, Table 16",17.65 and 18.77 and 19.77
same,Mean regulation,"[5]; TIMP1, vs saline, Table 12",1.12
same,Mean ΔCp,[5]; Table 12,3.143
same,Mean ΔCp,[5]; Table 16,3.143
